Laboratory results as given in patent publication US12697376B2, “Cationic lipid compounds” (Guangzhou Anobri Pharmaceutical Co. Ltd., priority 2021, dated 2026).

How the values were obtained:
[1] = Determination of the pKa of the cationic lipid in lipid nanoparticles by TNS fluorescence; type: physicochemical; conditions: probe 2-(p-toluidine)-6-naphthalenesulfonic acid (TNS), 1 uM final, cationic lipid in LNP (cationic lipid/DSPC/cholesterol/PEG lipid 50/10/38/2 mol %), pH of half-maximal fluorescence
Description: (§1) Cationic lipids, DSPC, cholesterol, and PEG-lipids were dissolved in ethanol in molar ratios of 50:10:38:2 or 48:10:40:2. Lipid nanoparticles (LNPs) were prepared in a ratio of total lipid to mRNA by weight of about 10:1 to 30:1. Briefly, mRNA was diluted to 0.15 mg/ml in 10 to 50 ml of citrate buffer (pH=4). Using a syringe pump, an ethanolic solution of lipids was mixed with an aqueous mRNA solution in a ratio of approximately 1:5 to 1:3 by volume at a total flow rate of over 10 ml/min. Ethanol was then removed and the external buffer was replaced by dialysis-class PBS. Finally, the lipid nanoparticles were filtered through a sterile filter with a pore size of 0.2 um. The particle size of the lipid nanoparticles was approximately 65-105 nm in diameter and, in some cases, approximately 75-100 nm in diameter, determined by quasi-elastic light scattering using Malvern Zetasizer Nano ZS.
The pKa of the formulated cationic lipid correlates with the effectiveness of the LNP for nucleic acid delivery. The preferred pKa range is from 5 to 7. The pKa of each cationic lipid was determined in lipid nanoparticles using an analysis based on the fluorescence of 2-(p-toluidine)-6-naphthalenesulfonic acid (TNS). Lipid nanoparticles containing cationic lipids/DSPC/cholesterol/PEG lipids (50/10/38/2 mol %) at a concentration of 0.4 mM total lipid in PBS were prepared using an ordered method as described in Example 10. TNS was prepared as a 100 μM stock solution in distilled water. The vesicles were diluted to contain 24 uM lipid in a 2 mL buffer solution containing 10 mM HEPES, 10 mM MES, 10 mM acetic acid, and 130 mM NaCl, pH 2.5-11. Aliquots of 100 μM TNS stock solution were added to bring the final concentration to 1 uM. After vortex mixing, fluorescence intensity was measured in an SLM Aminco Series 2 luminescence spectrophotometer at room temperature using excitation and emission wavelengths of 321 nm and 445 nm. Fluorescence data were analyzed using a s-shaped curve fitting and pKa was determined by measuring the pH that produced half-maximal fluorescence intensity.

[2] = system: luciferase expression in the liver; assay: In vivo luciferase mRNA expression in liver after tail vein injection of FLuc mRNA lipid nanoparticles; parameters: species or system mice; conditions: liver 5 hours after administration, LNP 50% cationic lipid/10% DSPC/38% cholesterol/2% PEG-DMG; for Liver Luc @ 0.3 mg/kg dose: 0.3 mg mRNA/kg; for Liver Luc @ 1.0 mg/kg dose: 1.0 mg mRNA/kg
Description: as §1
According to the guidelines set by the State Scientific and Technological Commission of The People's Republic of China, female C57BL/6 mice aged 6-8 weeks and CD-1 mice aged 8-10 weeks were used to perform the study. Various doses of mRNA lipid nanoparticles were administered by intravenous injection and the animals were euthanized at specific time points (e.g., 5 hours) post-administration. The liver and spleen were collected, weighed, immediately frozen in liquid nitrogen, and stored at −80° C. until being used for analysis.
For the liver, approximately 50 mg of liver tissue was cut and placed in 2 mL FastPrep tubes (MP Biomedicals, Solon OH) for analysis. ¼″ ceramic beads (MP Biomedicals) and 500 μL of room temperature Glo Lysis Buffer-GLB (Promega, Madison WI) were then added to each tube. The liver tissue was then homogenized for 15 seconds at a speed of 2×6.0 m/s using a FastPrep24 instrument (MP Biomedicals). The homogenates were incubated at room temperature for 5 minutes, then diluted with GLB in a ratio of 1:4, and finally evaluated using the SteadyGlo luciferase assay system (Promega). Specifically, 50 μL of diluted tissue homogenate was mixed with 50 μL of SteadyGlo substrate. The mixture was shaken for 10 seconds, then incubated at room temperature for 5 minutes, and subsequently quantified using a SpectraMAX_L chemiluminescent plate reader (Meigu Molecular Instrument (Shanghai) Co., Ltd.). The amount of protein was measured by using the BCA Protein Quantitation Kit (Shanghai Colorless Medical Technology Co., Ltd.). Relative luminescence units (RLU) were normalized to the total ug of the measured protein. To convert RLU into μg luciferase, a standard curve was generated using QuantiLum recombinant luciferase (Promega).
FLuc mRNA (L-6107) from Trilink Biotechnologies, which was originally isolated from fireflies (Photinus pyralis), will express luciferase protein. Fluc is commonly used in mammalian cell cultures to measure gene expression and cell viability. It emits biological light in the presence of the substrate luciferin. This capped and polyadenylated mRNA was completely replaced by 5-methylcytidine and pseudouridine.
For comparison purposes, these lipids were also used to formulate lipid nanoparticles containing FLuc mRNA (L-6107) using an ordered mixing method, as described in Example 10. Lipid nanoparticles were formulated with the following molar ratio: 50% cationic lipid/10% distearylphosphatidylcholine (DSPC)/38% cholesterol/2% PEG lipid (“PEG-DMG”, i.e., (1-(monomethoxy-polyethylene glycol)-2,3-dimyristoylglycerol, average PEG molecular weight 2000). As described in Example 10, relative activity was determined by measuring luciferase expression in the liver 5 hours after administration via tail vein injection. The activity was compared at doses of 0.3 and 1.0 mg mRNA/kg and expressed as ng luciferase/g liver measured 5 hours after administration as described in Example 10.

Compound | pKa [1] | Liver Luc @ 0.3 mg/kg dose [2] | Liver Luc @ 1.0 mg/kg dose [2]
CCCCCCCCC(CCCCCC)C(=O)OCCCCCCN(CCCCO)CCCCCCOC(=O)C(C)(CCCCCC)CCCCCCCC (stereo not drawn) [Compound 1] | 6.25 | 1424 ± 265 ng luciferase/g liver | 10318 ± 1304 ng luciferase/g liver
CCCCCCCCC(CCCCCC)C(=O)OCCCCCCN(CCCCO)CCCCCCOC(=O)C(CC)(CCCCCC)CCCCCCCC (stereo not drawn) [Compound 2] | 5.91 | 1469 ± 294 ng luciferase/g liver | 10671 ± 1912 ng luciferase/g liver
CCCCCCCCC(CCCCCC)C(=O)OCCCCCCN(CCCCO)CCCCCCOC(=O)C(CCC)(CCCCCC)CCCCCCCC (stereo not drawn) [Compound 3] | 6.22 | 961 ± 469 ng luciferase/g liver | 6917 ± 642 ng luciferase/g liver
CCCCCCCCC(C)(CCCCCC)C(=O)OCCCCCCN(CCCCO)CCCCCCOC(=O)C(C)(CCCCCC)CCCCCCCC (stereo not drawn) [Compound 4] | 6.12 | 1179 ± 362 ng luciferase/g liver | 8630 ± 824 ng luciferase/g liver
CCCCCCCCC(C)(CCCCCC)C(=O)OCCCCCCN(CCCCO)CCCCCCOC(=O)C(CC)(CCCCCC)CCCCCCCC (stereo not drawn) [Compound 5] | 5.89 | 1424 ± 289 ng luciferase/g liver | 10372 ± 2096 ng luciferase/g liver
CCCCCCCCC(C)(CCCCCC)C(=O)OCCCCCCN(CCCCO)CCCCCCOC(=O)C(CCC)(CCCCCC)CCCCCCCC (stereo not drawn) [Compound 6] | 6.13 | 1628 ± 432 ng luciferase/g liver | 11753 ± 2598 ng luciferase/g liver
CCCCCCCCC(CC)(CCCCCC)C(=O)OCCCCCCN(CCCCO)CCCCCCOC(=O)C(CC)(CCCCCC)CCCCCCCC (stereo not drawn) [Compound 7] | 6.08 | 1218 ± 359 ng luciferase/g liver | 8914 ± 1487 ng luciferase/g liver
CCCCCCCCC(CC)(CCCCCC)C(=O)OCCCCCCN(CCCCO)CCCCCCOC(=O)C(CCC)(CCCCCC)CCCCCCCC (stereo not drawn) [Compound 8] | 5.98 | 985 ± 625 ng luciferase/g liver | 7188 ± 942 ng luciferase/g liver
CCCCCCCCC(CCC)(CCCCCC)C(=O)OCCCCCCN(CCCCO)CCCCCCOC(=O)C(CCC)(CCCCCC)CCCCCCCC (stereo not drawn) [Compound 9] | 6.05 | 1138 ± 265 ng luciferase/g liver | 8443 ± 1045 ng luciferase/g liver
